In ChEMBL document CHEMBL4483862, “Open-source discovery of chemical leads for next-generation chemoprotective antimalarials” (2018):

Tested on: Plasmodium berghei
Test: Luciferase/luciferin-expressing antifolate-resistant parasites were used to infect a culture of HepG2 cells that were pre-incubated with compounds. Infected hepatocytes emit light due to the luciferase reaction. Assay results are presented as the percent inhibition of light emission compared to control. […]
Format: functional
Conditions: sporozoite; for IC90: read-out: LUCIFERASE INFECTION ASSAY - IC90
[1] = read-out: LUCIFERASE INFECTION ASSAY - IC50

Row | SMILES | IC90 | IC50 [1] | further results
1 | COCCNC(=O)C1CCN(C(C(=O)c2c[nH]c3ccccc23)c2ccccc2)CC1 (stereo unspecified) | 4.42 µM |  | IC50 (PBLUC_HILL_SLOPE 1.13, PBLUC_R_SQUARED 0.77, read-out: LUCIFERASE INFECTION ASSAY - IC50): 0.636 µM
2 | CN(C)c1nc(N)nc(COC(=O)c2cccc(Br)c2)n1 | > 10 µM | > 10 µM | 
3 | Cc1ccc2nc(NC(=O)c3ccc(C(F)(F)F)cc3)c(C(=O)NC3CCCC3)n2c1 | 1.95 µM | 0.593 µM | 
4 | FC(F)(F)c1nc2ccccc2c2nnc(-c3ccc(Cl)cc3)n12 | 3.88 µM |  | IC50 (HEPG2TOX_HILL_SLOPE 3.1, HEPG2TOX_R_SQUARED 0.959, PBLUC_HILL_SLOPE 22, PBLUC_R_SQUARED 0.45, read-out: LUCIFERASE INFECTION ASSAY - IC50): 3.51 µM
5 | CCN(CC)S(=O)(=O)c1ccc(N/N=C2/C=CC(=O)c3ncccc32)cc1 | > 10 µM | > 10 µM | 
6 | NC(=O)N1CCCC(C(=O)N2CCCC(c3nc4ccccc4s3)C2)C1 (stereo unspecified) | > 10 µM | > 10 µM | 
7 | O=C(Nc1ccc(Cl)cc1)Nc1csc([N+](=O)[O-])c1 | 10 µM |  | IC50 (HEPG2TOX_HILL_SLOPE 14.4, HEPG2TOX_R_SQUARED 0.942, PBLUC_HILL_SLOPE 1.2, PBLUC_R_SQUARED 0.682, read-out: LUCIFERASE INFECTION ASSAY - IC50): 1.62 µM
8 | O=C(Nc1nc(-c2c[nH]c3ccccc23)cs1)c1cc(=O)[nH]c2ccccc12 | > 10 µM |  | IC50 (PBLUC_HILL_SLOPE 7.71, PBLUC_R_SQUARED 0.559, read-out: LUCIFERASE INFECTION ASSAY - IC50): 9.23 µM
9 | Fc1ccc(N2c3cc(F)ccc3N=C(c3ccccc3)C2c2ccccc2)cc1 (stereo unspecified) | > 8.32 µM |  | IC50 (FFLUC_HILL_SLOPE 13.2, FFLUC_R_SQUARED 0.317, HEPG2TOX_HILL_SLOPE 1.35, HEPG2TOX_R_SQUARED 0.526, PBLUC_HILL_SLOPE 1.66, PBLUC_R_SQUARED 0.328, read-out: LUCIFERASE INFECTION ASSAY - IC50): 5.47 µM
10 | Cc1ccc(C(C)CCN2CCC3(CC2)C(=O)N(CCCc2ccncc2)C(=O)N3CCC(C)C)o1 (stereo unspecified) | > 6.67 µM |  | IC50 (PBLUC_HILL_SLOPE 13.4, PBLUC_R_SQUARED 0.376, read-out: LUCIFERASE INFECTION ASSAY - IC50): 6.51 µM
11 | CN1/C(=C\C=N\NC(=O)c2cnccn2)C(C)(C)c2ccccc21 | > 10 µM | > 10 µM | 
12 | S=C(NCCc1ccc(Cl)cc1Cl)NC1CC2CCC1C2 (stereo unspecified) | > 10 µM | > 10 µM | 
13 | COc1ccc(-c2cnn3c(N)c(-c4cccc(Cl)c4)cnc23)cc1OC | > 8.67 µM |  | IC50 (HEPG2TOX_HILL_SLOPE 8.92, HEPG2TOX_R_SQUARED 0.943, PBLUC_HILL_SLOPE 1.73, PBLUC_R_SQUARED 0.738, read-out: LUCIFERASE INFECTION ASSAY - IC50): 2.75 µM
14 | N#C/C=C1\SCC(=O)N1CC(=O)c1ccc([N+](=O)[O-])cc1 | > 10 µM |  | IC50 (PBLUC_HILL_SLOPE 1.79, PBLUC_R_SQUARED 0.472, read-out: LUCIFERASE INFECTION ASSAY - IC50): 5.27 µM
15 | Clc1ccc(-n2nnnc2Sc2ncnc3sc4c(c23)CCC4)cc1 | > 10 µM |  | IC50 (FFLUC_HILL_SLOPE 0.273, FFLUC_R_SQUARED 0.315, read-out: LUCIFERASE INFECTION ASSAY - IC50): > 10 µM
16 | C[n+]1c(-c2ccccc2)cc(CCCCc2cc(-c3ccccc3)[n+](C)c(-c3ccccc3)c2)cc1-c1ccccc1 | > 10 µM |  | IC50 (HEPG2TOX_HILL_SLOPE 8.54, HEPG2TOX_R_SQUARED 0.649, PBLUC_HILL_SLOPE 17.9, PBLUC_R_SQUARED 0.599, read-out: LUCIFERASE INFECTION ASSAY - IC50): 9.47 µM
17 | Brc1cnc2nc(-c3ccccc3)[nH]c2c1 | 7.03 µM |  | IC50 (HEPG2TOX_HILL_SLOPE 8.76, HEPG2TOX_R_SQUARED 0.602, PBLUC_HILL_SLOPE 4.6, PBLUC_R_SQUARED 0.128, read-out: LUCIFERASE INFECTION ASSAY - IC50): 4.36 µM
18 | CCOC(=O)c1sc(N)c(C#N)c1CSc1nnc(-c2ccncc2)n1-c1ccc(CC)cc1 | > 10 µM | > 10 µM | 
19 | CCOC(=O)c1c(S(=O)(=O)Nc2ccc(Cl)cc2)c(-c2ccccc2)n(-c2ccccc2)c1C | > 6.67 µM | 4.84 µM | 
20 | C/C(=N\n1c(-c2cccc(Br)c2)cs/c1=N\c1ccc(Cl)cc1Cl)c1ccc2c(c1)OCO2 | > 10 µM |  | IC50 (HEPG2TOX_HILL_SLOPE 4.14, HEPG2TOX_R_SQUARED 0.54, PBLUC_HILL_SLOPE 9.69, PBLUC_R_SQUARED 0.311, read-out: LUCIFERASE INFECTION ASSAY - IC50): 9.72 µM
21 | COc1ccc(Cl)cc1NC(=O)CCN1CCN(c2ncc(C(F)(F)F)cc2Cl)CC1 | 9.88 µM | 4.95 µM | 
22 | CC(=O)c1sc(-c2ccc(OCC(=O)Nc3ccc(S(=O)(=O)N4CCCC4)cc3)cc2)nc1C | > 10 µM | > 10 µM | 

Row | SMILES | IC90 | IC50 [1] | further results
23 | CC(C)(C)c1cnnn1-c1ccc(C(=O)/C=C/c2ccccc2)cc1 | > 10 µM | > 10 µM | 
24 | C=CCN(c1ccccc1)S(=O)(=O)c1ccc(Cl)c(C(=O)Nc2ccc(N(c3ccccc3)C(C)C)cc2)c1 | 8.36 µM |  | IC50 (FFLUC_HILL_SLOPE 2.09, FFLUC_R_SQUARED 0.761, HEPG2TOX_HILL_SLOPE 2.29, HEPG2TOX_R_SQUARED 0.839, PBLUC_HILL_SLOPE 16.1, PBLUC_R_SQUARED 0.248, read-out: LUCIFERASE INFECTION ASSAY - IC50): 7.29 µM
25 | CN1/C(=C\Sc2ccccc2[N+](=O)[O-])C(C)(C)c2ccccc21 | > 10 µM |  | IC50 (HEPG2TOX_HILL_SLOPE 1.18, HEPG2TOX_R_SQUARED 0.48, PBLUC_HILL_SLOPE 2.15, PBLUC_R_SQUARED 0.378, read-out: LUCIFERASE INFECTION ASSAY - IC50): 8.07 µM
26 | O=c1c2ccccc2cnn1-c1nc2ccccc2[nH]1 | > 10 µM |  | IC50 (HEPG2TOX_HILL_SLOPE 1.61, HEPG2TOX_R_SQUARED 0.823, PBLUC_HILL_SLOPE 0.454, PBLUC_R_SQUARED 0.451, read-out: LUCIFERASE INFECTION ASSAY - IC50): 4.95 µM
27 | Cc1ccc(-n2ncc(C(=O)OCc3nc(N)nc(N(C)C)n3)c2C(C)C)cc1 | > 10 µM |  | IC50 (PBLUC_HILL_SLOPE 2.99, PBLUC_R_SQUARED 0.678, read-out: LUCIFERASE INFECTION ASSAY - IC50): 6.36 µM
28 | CSc1sc(Cl)c(-c2ccc(Cl)cc2)c1C#N | > 11 µM | > 11 µM | 
29 | COc1ccc(-c2cnc3cnc(-c4ccc(N5CCN(C)CC5)cc4)cn23)cn1 | > 8.24 µM | > 8.24 µM | 
30 | O=[N+]([O-])c1cnc(Sc2nnc(-c3ccco3)n2-c2ccc(OCc3ccccc3)cc2)s1 | > 6.91 µM |  | IC50 (FFLUC_HILL_SLOPE 16.1, FFLUC_R_SQUARED 0.469, read-out: LUCIFERASE INFECTION ASSAY - IC50): > 6.91 µM
31 | Cc1ccc(C)c(Nc2sc(-c3cc(=O)oc4c(C)c(C)ccc34)c(N)c2-c2nc3ccccc3s2)c1 | 9.38 µM |  | IC50 (PBLUC_HILL_SLOPE 3.07, PBLUC_R_SQUARED 0.45, read-out: LUCIFERASE INFECTION ASSAY - IC50): 4.59 µM
32 | N#Cc1nncn1Cc1csc(-c2cccs2)n1 | 9.56 µM |  | IC50 (PBLUC_HILL_SLOPE 12.1, PBLUC_R_SQUARED 0.315, read-out: LUCIFERASE INFECTION ASSAY - IC50): 7.97 µM
33 | CN1c2ccccc2C(C)(C)C12C=Cc1c(c(Br)cc3oc4c(c13)CCCC4)O2 (stereo unspecified) | > 10 µM |  | IC50 (HEPG2TOX_HILL_SLOPE 0.555, HEPG2TOX_R_SQUARED 0.409, PBLUC_HILL_SLOPE 0.699, PBLUC_R_SQUARED 0.384, read-out: LUCIFERASE INFECTION ASSAY - IC50): 4.21 µM
34 | Cc1ccc2nc(CNc3ccccc3-c3ccccc3)cc(=O)n2c1 | > 10 µM | > 10 µM | 
35 | Cc1ccc(-n2nc(C)c(NC(=O)COc3ccc4c(=O)c(-c5ccccc5)coc4c3)c2C)cc1 | 3.64 µM |  | IC50 (HEPG2TOX_HILL_SLOPE 9.24, HEPG2TOX_R_SQUARED 0.0911, PBLUC_HILL_SLOPE 28.6, PBLUC_R_SQUARED 0.544, read-out: LUCIFERASE INFECTION ASSAY - IC50): 3.37 µM
36 | C=CCN(C(=O)c1ccccc1Br)c1nc2ccccc2s1 | > 10 µM | > 10 µM | 
37 | C/C(=N\NC(=O)c1ccccc1)c1ccccc1O | > 13 µM |  | IC50 (HEPG2TOX_HILL_SLOPE 1.31, HEPG2TOX_R_SQUARED 0.966, PBLUC_HILL_SLOPE 10.4, PBLUC_R_SQUARED 0.464, read-out: LUCIFERASE INFECTION ASSAY - IC50): > 13 µM
38 | Cc1[nH]c2ccccc2c1C1=NN=C(Nc2ccc(F)cc2)SC1 | > 10 µM |  | IC50 (HEPG2TOX_HILL_SLOPE 10.5, HEPG2TOX_R_SQUARED 0.592, PBLUC_HILL_SLOPE 2.25, PBLUC_R_SQUARED 0.706, read-out: LUCIFERASE INFECTION ASSAY - IC50): 5.54 µM
39 | COc1ccccc1-c1cc(C(=O)NCC(C)c2ccccc2)no1 (stereo unspecified) | > 10 µM |  | IC50 (PBLUC_HILL_SLOPE 1.24, PBLUC_R_SQUARED 0.652, read-out: LUCIFERASE INFECTION ASSAY - IC50): 3.42 µM
40 | O=C(COc1nnc2ccccn12)Nc1cccc2ccccc12 | > 10 µM | > 10 µM | 
41 | Cc1ccc(-c2nc(CSc3nc(C)c(C)n3CC3CCCO3)co2)c(C)c1 (stereo unspecified) | > 10 µM |  | IC50 (FFLUC_HILL_SLOPE 1.24, FFLUC_R_SQUARED 0.0904, HEPG2TOX_HILL_SLOPE 3.11, HEPG2TOX_R_SQUARED 0.82, read-out: LUCIFERASE INFECTION ASSAY - IC50): > 10 µM
42 | O=C(c1ccc2[nH]c3c(c2c1)CCCC3)N1CCN(Cc2nc(-c3cccs3)no2)CC1 | > 10 µM | > 10 µM | 
43 | Cc1cc(NC(C)C)n2ncc(-c3ccc(F)cc3)c2n1 | 5.57 µM |  | IC50 (FFLUC_HILL_SLOPE 0.941, FFLUC_R_SQUARED 0.965, HEPG2TOX_HILL_SLOPE 0.182, HEPG2TOX_R_SQUARED 0.624, PBLUC_HILL_SLOPE 0.618, PBLUC_R_SQUARED 0.897, read-out: LUCIFERASE INFECTION ASSAY - IC50): 0.16 µM
